Results taken from US20080241870A1, “Composition For Creating an Artificial Bone Marrow Like Environment and Use Thereof” (NATIONAL CENTRE FOR CELL SCINECES, priority 2005, published 2008).

How the values were obtained:
Format in all cases: cell-based, human
MNC = assay: self renewal: GEMM colony formation of MNC mixed with doses of ABME cells
Experimental: The mesenchyme cells were grown in IMDM plus 20% fetal bovine serum until they were nearly confluent. The medium was removed and was washed 2× with PBS. ABME was prepared by using a biological hematomodulator namely, TGF beta 1(20 ng ml−1).The ABME formed was washed 2× with PBS and the cells were dissociated with a non-enzymatic solution (Sigma). A fixed number of MNC namely 2×10^5 were mixed with various doses of dissociated mesenchymal cells (2×10^4, 5×10^4 and 1×10^5) and incubated for 1 hour. At the end of the incubation, cells were processed for hematopoietic colony formation assays (HCFA). […] Secondly the lowest concentration of cells from ABME (2×10^4) was more efficient in the stimulation of GEMM formation than the highest concentration (1×10^5) of mesenchymal cells indicating a nearly 10 fold increase in the efficiency.

CD34+ cells [1] = assay: adhesion of CD34+ cells to ABME on coverslips; details: 10 ngml^-1, 18 hours; CD34+/MNC contact 1 hour; vs reference coverslip
Experimental: Mesenchyme cells were grown on a sterile 1 cm×1 cm glass coverslip to near confluence and were covered with a treatment medium containing 10 ngml^−1 TGF-β1 and were incubated for 18 hours in a humidified sterile atmosphere and 5% CO2. The coverslips were then washed with PBS, and the ABME thus created were covered with a suspension of 2×10^6 MNC or 2×10^5 CD34^+ cells in 0.2 ml of IMDM with 20% serum. After 1 hour at 37° C., the coverslips were washed with PBS and the cells were fixed and stained with a CD34^+ specific antibody (clone HPCA1, Becton Dickinson, USA). The number of CD34^+ cells attached were counted and compared to the number of similar cells that were attached in a parallel reference experiment where TGF-β1 was not used. […] It may be seen from FIGS. 6(d-f) that there is an increased adhesion of CD34^+ cells to mesenchymal cells when mesenchymal cells are treated with TGF-β1.

HIF1α = HIF1α immunostaining of mesenchymal cells; details: immunostaining vs control cells; FIG. 11a
Text: Mesenchymal cells were processed for ABME formation as per details given in experiment #1 above using a biological modulator namely TGFbeta1. The cells were fixed after the indicated time periods and immuno-stained with an antibody to HIF1α which is a specific transcription factor related to hypoxia.

mesenchymal cells = assay: Hypoxy probe incorporation in ABME under normoxic conditions; details: 200 μM Hypoxy probe, 48 hours; FIG. 11b
Experimental: Mesenchymal cells were processed for ABME formation as per details given in Example 7(a) above using a biological modulator namely TGFbeta1 and were incubated with 200 μM Hypoxy probe (Chemicon, USA) for 48 hours. The cells were fixed and immuno-stained with an antibody specific for detection of the label (Chemicon).

mesenchyme cells = assay: SDF-1α release / in vitro homing of CD34+ SPC (conditioned medium of treated mesenchyme cells); details: 10 ngml^-1, 4 hours treatment, conditioned medium after 18 hours; vs untreated reference
Experimental: 5×10^5 mesenchyme cells were grown on a 35 mm diameter Petri dish (Becton Dickinson, USA) in IMDM containing 20% serum. After the cells were confluent, the medium was removed, the cells were washed 2× with Phosphate buffered saline (GIBCO-BRL) (PBS) and the medium was changed to treatment medium containing 10 ngml^−1 of TGFβ1 and the dishes were returned to standard cell culture environment at 37° C. in 5% CO2. After 4 hours, the treatment medium was removed, the cells were washed with PBS and were covered with 1 ml of IMDM containing 0.5% serum and incubation at 37° C. in 5% CO2 was continued. After 18 hours, the conditioned medium was collected and was assayed for its ability to support in vitro homing of CD34^+ SPC. In another parallel experiment, an equal number of mesenchymal cells were employed, where TGF-β1 was not used and the conditioned medium obtained from this experiment was used as a reference for comparison. […] As shown in FIGS. 6(a-b) untreated mesenchymal cells show no or marginal homing as compared to mesenchymal cells treated with TGF-β1. The homing could be modulated in this case either by adding suitable amounts of a neutralizing antibody to SDF-1α or to its receptor CXCR-4 to neutralize its effects on chemo-attraction of SPC or by destroying the gradient by exogenous addition of SDF1α indicating the specificity of the process.

CD34+ cells [2] = assay: self renewal: CD34+ cell number after 48 hours on ABME; Jagged1 expression
Experimental: Mesenchyme cells were grown on a sterile 1 cm×1 cm glass coverslip to near confluence and were covered with a treatment medium containing 10 ngml^−1 TGF-β1 and were incubated for 18 hours in a humidified sterile atmosphere and 5% CO2. The coverslips were then washed with PBS, and the ABME thus created were covered with a suspension of 2×10^5 CD34^+ cells in 0.2 ml of IMDM with 20% serum. The cells were washed after one hour and the bound cells were covered with medium with 20% serum containing 0.8% methyl cellulose and growth factors. The change in CD34^+ cell number after 48 hours was monitored with a CD34^+ specific antibody (clone HPCA1, Becton Dickinson, USA).

CD34+ SPC = assay: lineage commitment: HCFA with CD34+ SPC, count of mature blood cells after 14 days; details: 10 ngml^-1, 18 hours; HCFA 14 days; FIG. 8a
Experimental: The mesenchyme cells (5×10^4 cells per well in a 24 well dish) were grown in IMDM plus 20% fetal bovine serum until they were nearly confluent. The medium was removed and was washed 2× with PBS. Two different ABME were prepared by using two biological hematomodulators (TGFβ1 10 ngml^−1, bFGF 10 ngml^−1, 18 hours) separately. The ABME formed was washed 2× with PBS and was covered with 0.2 ml of a suspension of CD34^+ SPC cells (10^5 ml−1) for 1 hour at 37° C. All the cells of the dish were then harvested after washing and were used in a HCFA. After 14 days, the mature blood cells formed were harvested and an aliquot of the suspension was examined under the microscope to identify and count the mature lymphoid and myeloid cells.
The mesenchyme cells (5×10^4 cells per well in a 24 well dish) were grown in IMDM plus 20% fetal bovine serum until they were nearly confluent. The medium was removed and was washed 2× with PBS. The cells in one well were treated with a DiBromo derivative of the Calcium ion chelator BAPTA (5 micromolar) for one hour whereas another well received only the medium without the BAPTA derivative. After 1 hour of incubation at 37° C., TGFβ1 was added to both the wells (10 ng ml−1) and the incubation was continued for a further period of 18 hours. The ABME formed in both wells were washed and were used for HCFA using CD34^+ SPC. After 14 days the mature blood cells were harvested and were quantitated for the cells of erythroid and myeloid lineage.

HumanTransforming Growth Factor beta1 [TGFβ1]
GEMM colony formation (MNC; 20 ng ml-1, 2×10^5 MNC with 2×10^4, 5×10^4, 1×10^5 ABME cells vs control mesenchymal cells, FIG. 10a): clear dose dependent increase in GEMM colony formation
increase in efficiency of GEMM stimulation (MNC; 2×10^4 ABME cells vs 1×10^5 mesenchymal cells): ~10 fold
number of CD34+ cells attached to ABME (CD34+ cells [1]): significantly more number of CD34^+ cells attached
HIF1α expression (HIF1α): clear nuclear expression of HIF1α
Hypoxy probe label incorporation (mesenchymal cells): high incorporation of the label
SDF-1α release from mesenchymal cells (mesenchyme cells): significantly more amounts of SDF-1α was released
CD34+ cell proliferation (CD34+ cells [2]; 10 ngml^-1, 18 hours, CD34+ number after 48 hours, vs no TGFβ1, FIG. 10b): supported more CD34^+ cell proliferation
Jagged1 amount in ABME (CD34+ cells [2]; compared to mesenchyme cells, FIG. 10c): significantly more amounts of the promoter of self renewal, Jagged1
mature lymphoid and myeloid cells formed (CD34+ SPC): supported more myeloid cell formation
